Values quoted from earlier work as cited in US20070275092A1, “Therapeutic composition supporting the immune system” (priority 2005, published 2007).

Conditions: per day

[Zn] [zinc]
dosage well tolerated but with potential side effects such as anemia (attributable to copper deficiency): 200 mg
